# Data: EPA's ToxRefDB 2
# Columns and labels:
# [1] = tested on: mouse; settings: Multigenerational reproductive toxicity study, Other, Oral, Feed, dose end: 90 day
# [2] = tested on: rat; settings: Combined chronic toxicity/carcinogenicity, fischer, Oral, Feed, dose end: 2 year, group: systemic
# [3] = tested on: mouse; settings: Sub-acute repeat dose toxicity; b6c3f1; Oral; Gavage/Intubation; dose end: 14 day; group: systemic; systemic / in life observation / mortality / mortality
# [4] = tested on: mouse; settings: Carcinogenicity; b6c3f1; Oral; Gavage/Intubation; dose end: 103 week; group: systemic; systemic / pathology microscopic / stomach / hyperplasia + systemic / pathology microscopic / stomach / inflammation
# [5] = tested on: rat; settings: Carcinogenicity, fischer, Oral, Gavage/Intubation, dose end: 103 week, group: systemic
# [6] = tested on: rat; settings: Prenatal developmental toxicity study, sprague dawley, Oral, Gavage/Intubation, dose end: 20 GD
# [7] = tested on: rat; settings: Subchronic oral toxicity in rodents, fischer, Gavage/Intubation, dose end: 13 week, group: systemic
# [8] = tested on: rat; settings: Sub-acute repeat dose toxicity, fischer, Oral, Gavage/Intubation, dose end: 14 day, group: systemic
# [9] = group: parental, systemic / in life observation / mortality / mortality
# [10] = group: reproductive, reproductive / reproductive performance / fertility / fertility + reproductive / reproductive performance / mating / mating + reproductive…
# [11] = systemic / pathology microscopic / kidney / nephropathy + systemic / pathology microscopic / liver / cytomegaly + systemic / pathology …
# [12] = systemic / pathology microscopic / liver / cytomegaly + systemic / in life observation / food consumption / food consumption
# [13] = systemic / pathology microscopic / liver / fibrosis + systemic / pathology microscopic / liver / hyperplasia + systemic / pathology …
# [14] = systemic / pathology microscopic / liver / pigmentation
# [15] = group: developmental, developmental / developmental malformation / bone / ossification sites + systemic / in life observation / body weight / fetal weight
# [16] = group: maternal, systemic / in life observation / body weight / body weight gain + systemic / in life observation / food consumption / food consumption + …
# [17] = systemic / pathology microscopic / liver / basophilic focus + systemic / pathology microscopic / liver / hypertrophy + systemic / pathology …
# [18] = systemic / pathology gross / intestine large / enlarged + systemic / pathology gross / liver / mottling
structure (smiles),measurement,setting,value
ClC1(Cl)C2(Cl)C3(Cl)C4(Cl)C(Cl)(Cl)C5(Cl)C3(Cl)C1(Cl)C5(Cl)C24Cl (stereo not given) [Mirex],LEL,[1]; [9],0.25 mg/kg/day
same,LOAEL,[1]; [9],> 0.25 mg/kg/day
same,NEL,[1]; [9],< 0.25 mg/kg/day
same,NOAEL,[1]; [9],≥ 0.25 mg/kg/day
same,LEL,[1]; [10],0.25 mg/kg/day
same,LOAEL,[1]; [10],> 0.25 mg/kg/day
same,NEL,[1]; [10],< 0.25 mg/kg/day
same,NOAEL,[1]; [10],≥ 0.25 mg/kg/day
same,LOAEL,[2]; [11],1.95 mg/kg/day
same,NOAEL,[2]; [11],0.75 mg/kg/day
same,LEL,[2]; [12],0.007 mg/kg/day
same,NEL,[2]; [12],< 0.007 mg/kg/day
C=CCOC(=O)c1ccccc1C(=O)OCC=C [Diallyl phthalate],LEL,[3],400 mg/kg/day
same,LOAEL,[3],> 600 mg/kg/day
same,NEL,[3],200 mg/kg/day
same,NOAEL,[3],≥ 600 mg/kg/day
same,LEL,[4],150 mg/kg/day
same,LOAEL,[4],150 mg/kg/day
same,NEL,[4],< 150 mg/kg/day
same,NOAEL,[4],< 150 mg/kg/day
same,LOAEL,[5]; [13],100 mg/kg/day
same,NOAEL,[5]; [13],50 mg/kg/day
same,LEL,[5]; [14],50 mg/kg/day
same,NEL,[5]; [14],< 50 mg/kg/day
same,LOAEL,[6]; [15],> 250 mg/kg/day
same,NEL,[6]; [15],150 mg/kg/day
same,NOAEL,[6]; [15],≥ 250 mg/kg/day
same,LEL,"[6]; group: developmental, systemic / in life observation / body weight / fetal weight",200 mg/kg/day
same,LOAEL,[6]; [16],> 250 mg/kg/day
same,NEL,[6]; [16],100 mg/kg/day
same,NOAEL,[6]; [16],≥ 250 mg/kg/day
same,LEL,"[6]; group: maternal, systemic / pathology gross / liver / discolored + systemic / pathology gross / liver / mottling",150 mg/kg/day
same,NOAEL,[7]; systemic / in life observation / clinical signs / defecation (diarrhea) + systemic / in life observation / clinical signs / emaciation + …,100 mg/kg/day
same,LEL,[7]; [17],50 mg/kg/day
same,LOAEL,[7]; [17],200 mg/kg/day
same,NEL,[7]; [17],25 mg/kg/day
same,LEL,[8]; [18],50 mg/kg/day
same,NEL,[8]; [18],< 50 mg/kg/day
same,NOAEL,[8]; systemic / pathology gross / liver / discolored + systemic / pathology gross / liver / enlarged + systemic / pathology gross / liver / …,100 mg/kg/day
same,LOAEL,[8]; systemic / pathology gross / liver / mottling + systemic / pathology gross / liver / discolored + systemic / pathology gross / liver / …,200 mg/kg/day
